# From ChEMBL document CHEMBL3352493, “Xylarianaphthol-1, a novel dinaphthofuran derivative, activates p21 promoter in a p53-independent manner” (Bioorg Med Chem Lett, 2014)
# Activity calls are given as the source filed them. The rule behind the calls is not given here.
# How the values were obtained:
# MG-63 [1] = test: Induction of p53-independent p21 promoter activation (unknown origin) transfected in human MG63 cells expressing luciferase reporter gene at 0.3 uM by luciferase reporter gene assay relative to control; type: cell-based
# MG-63 [2] = test: Induction of p53-independent p21 promoter activation (unknown origin) transfected in human MG63 cells expressing luciferase reporter gene by luciferase reporter gene assay; type: cell-based
# MG-63 [3] = test: Increase in p21 protein expression in wild-type human MG63 cells at 0.01 to 0.3 uM by Western blotting method; type: functional, cell-based
compound,measurement,setting,value
COc1cccc2c1c(O)cc1oc3c(ccc4cccc(O)c43)c12,fold change (FC),MG-63 [1],2.5
same,Activity,MG-63 [2],Dose-dependent effect
same,Activity,MG-63 [3],Active
